Assays:
Akt phosphorylation = experiment: Akt Phosphorylation Assay (western blot), Panc-1; type: cell-based, human; conditions: at 10 μM, * = activation
Procedure, shortened: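 Phospho-Akt (Ser473) was measured by western blot in lysates of KRas G12D Panc-1 cells exposed to test compound for 6 h at 37 °C, either at 10 μM final with 0.3% DMSO or as serial dilutions for IC50. One format used overnight 0.5% FBS starvation followed by a 15 min pulse of 1.5 ng/ml EGF. The other used cells in 10% FBS with no stimulation.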

[1] = Mouse Liver Microsome Metabolic Stability Assay; type: in vitro ADME; conditions: pH 7.4, Mouse liver microsomes, 37° C., NADPH, read-out: t½
Procedure: Biological Example 10: Assessment of Metabolic Stability in Mouse Liver Microsomes
Metabolic Stability Assay: Microsomal incubations were carried out in 96-well plates in 5 aliquots of 30 μL each (one for each time point). Liver microsomal incubation medium comprised of phosphate buffer (100 mM, pH 7.4), MgCl2 (3.3 mM), NADPH (3 mM), glucose-6-phosphate (5.3 mM), glucose-6-phosphate dehydrogenase (0.67 units/ml) with 0.42 mg of liver microsomal protein per mL. In the control reactions the NADPH-cofactor system was substituted with phosphate buffer. Test compounds (2 μM, final solvent concentration 1.6%) were incubated with microsomes at 37° C., shaking at 100 rpm. Each reaction was performed in duplicates. Five time points over 40 minutes were analyzed. The reactions were stopped by adding 5 volumes of methanol containing internal standard to incubation aliquots, followed by protein sedimentation by centrifuging at 5500 rpm for 4 minutes. Supernatants were analyzed using the HPLC system coupled with tandem mass spectrometer.
The elimination constant (kel), half-life (t1/2) and intrinsic clearance (Clint) were determined in plot of […] versus time, using linear regression analysis:
In order to indicate the quality of the linear regression analysis, the R (correlation coefficient) values are provided. In some cases, the last time point is excluded from the calculations to ensure acceptable logarithmic linearity of decay.
Table 9 show metabolic stability data for selected compounds tested in the Mouse Liver Microsome Metabolic Stability assay described above.

[2] = Kinetic Solubility Assay in pH 7.4 Buffer + 2% DMSO; type: physicochemical; conditions: phosphate-buffered saline pH 7.4 with 2% DMSO, aqueous buffer, kinetic from dmso stock, 25° C., two hours
Procedure: Biological Example 9: Kinetic Solubility
Kinetic solubility assay in pH 7.4 Buffer+2% DMSO (“Kinetic Solubility Assay) was performed according to the following protocol: Briefly, using a 20 mM stock solution of the tested compounds in 100% DMSO, dilutions were prepared to a theoretical concentration of 400 μM in duplicates in phosphate-buffered saline pH 7.4 (138 mM NaCl, 2.7 mM KCl, 10 mM K-phosphate) with 2% final DMSO. The tested compounds dilutions in PBS were further allowed to equilibrate at 25° C. on a thermostatic shaker for two hours and then filtered through HTS filter plates using a vacuum manifold. The filtrates of the test compounds were diluted 2-fold with acetonitrile with 2% DMSO before measuring.
In parallel, using a 20 mM stock solution of the tested compounds in 100% DMSO, dilutions were prepared to theoretical concentrations of 0 μM (blank), 10 μM, 25 μM, 50 μM, 100 μM, and 200 μM in 50% acetonitrile/PBS with 2% final DMSO to generate calibration curves. Ondansetron was used as a reference compound to control proper assay performance. 200 μL of each sample was transferred to a 96-well plate and measured in the 230-550 nm range with a 5 nm step.
The concentrations of compounds in PBS filtrate are calculated using a dedicated Microsoft Excel calculation script. Proper absorbance wavelengths for calculations are selected for each compound manually based on absorbance maximums (absolute absorbance unit values for the minimum and maximum concentration points within the 0-3 OD range). Each final dataset is visually evaluated by the operator, and goodness of fit (R2) is calculated for each calibration curve. The effective range of this assay is approximately 2-400 μM and the compounds returning values close to the upper limit of the range may have higher actual solubility (e.g., 5′-deoxy-5-fluorouridine).
Table 8 show kinetic solubility data for selected compounds tested in the Kinetic Solubility assay described above.

SMILES | half-life at 2 µM [1] [min] | solubility at 2 h [2] [µM] | % inh of Akt phosphorylation in Panc-1 (Akt phosphorylation)
COc1cc(Nc2nc(-c3nccn3C)nn3cc(-c4ccn(C(C)C)n4)c(C)c23)ncn1 [Compound 6, 6-(1-Isopropyl-1H-pyrazol-3-yl)-N-(6-methoxypyrimidin-4-yl)-5-methyl-2-(1-methyl-1H-imidazol-2-yl)pyrrolo[2,1-f][1,2,4]triazin-4-amine] | > 10 | < 10 | 0 (0% inhibition)
COc1ccnc(Nc2nc(-c3nccn3C)nn3cc(-c4ccn(C)n4)c(C)c23)c1 [Compound 102, N-(4-Methoxypyridin-2-yl)-5-methyl-2-(1-methyl-1H-imidazol-2-yl)-6-(1-methyl-1H-pyrazol-3-yl)pyrrolo[2,1-f][1,2,4]triazin-4-amine] | > 10 | > 30 | D* (85-100% activation)
Cc1c(-c2ccn(C)n2)cn2nc(-c3nccn3C)nc(Nc3cc(C4CC4)[nH]n3)c12 [Compound 104, N-(5-Cyclopropyl-1H-pyrazol-3-yl)-5-methyl-2-(1-methyl-1H-imidazol-2-yl)-6-(1-methyl-1H-pyrazol-3-yl)pyrrolo[2,1-f][1,2,4]triazin-4-amine] | > 10 | < 10 | D* (85-100% activation)
Cc1c(-c2ccn(C)n2)cn2nc(-c3nccn3C)nc(Nc3ccncn3)c12.Cl [Compound 116, 5-Methyl-2-(1-methyl-1H-imidazol-2-yl)-6-(1-methyl-1H-pyrazol-3-yl)-N-(pyrimidin-4-yl)pyrrolo[2,1-f][1,2,4]triazin-4-amine hydrochloride salt] |  | 10 to 30 | D* (85-100% activation)
Cc1c(-c2ccn(C)n2)cn2nc(-c3nccn3C)nc(Nc3ccccn3)c12 [Compound 118, 5-Methyl-2-(1-methyl-1H-imidazol-2-yl)-6-(1-methyl-1H-pyrazol-3-yl)-N-(pyridin-2-yl)pyrrolo[2,1-f][1,2,4]triazin-4-amine] |  | > 30 | D* (85-100% activation)
Cc1c(-c2ccn(C)n2)cn2nc(-c3nccn3C)nc(Nc3cc4n(n3)CCO4)c12 [Compound 124, N-(5-Methyl-2-(1-methyl-1H-imidazol-2-yl)-6-(1-methyl-1H-pyrazol-3-yl)pyrrolo[2,1-f][1,2,4]triazin-4-yl)-2,3-dihydropyrazolo[5,1-b]oxazol-6-amine] | > 10 | 10 to 30 | C* (46-84% activation)
Cc1c(-c2ccn(C)n2)cn2nc(-c3nccn3C)nc(Nc3cc(OC4CC4)ccn3)c12 [Compound 126, N-(4-Cyclopropoxypyridin-2-yl)-5-methyl-2-(1-methyl-1H-imidazol-2-yl)-6-(1-methyl-1H-pyrazol-3-yl)pyrrolo[2,1-f][1,2,4]triazin-4-amine] | > 10 |  | D* (85-100% activation)
Cc1c(-c2ccn(C)n2)cn2nc(-c3nccn3C)nc(Nc3cc(OC(F)(F)F)ccn3)c12 [Compound 127, 5-Methyl-2-(1-methyl-1H-imidazol-2-yl)-6-(1-methyl-1H-pyrazol-3-yl)-N-(4-(trifluoromethoxy)pyridin-2-yl)pyrrolo[2,1-f][1,2,4]triazin-4-amine] | < 10 |  | D* (85-100% activation)
Cc1c(-c2ccn(C)n2)cn2nc(-c3nccn3C)nc(Nc3cc(OC(F)F)ccn3)c12 [Compound 128, N-(4-(Difluoromethoxy)pyridin-2-yl)-5-methyl-2-(1-methyl-1H-imidazol-2-yl)-6-(1-methyl-1H-pyrazol-3-yl)pyrrolo[2,1-f][1,2,4]triazin-4-amine] | > 10 |  | D* (85-100% activation)
Cc1c(-c2ccn(C)n2)cn2nc(-c3nccn3C)nc(Nc3cc(OCC(F)(F)F)ccn3)c12 [Compound 129, 5-Methyl-2-(1-methyl-1H-imidazol-2-yl)-6-(1-methyl-1H-pyrazol-3-yl)-N-(4-(2,2,2-trifluoroethoxy)pyridin-2-yl)pyrrolo[2,1-f][1,2,4]triazin-4-amine] | > 10 |  | C* (46-84% activation)
COc1ccnc(Nc2nc(-c3nccn3C)nn3cc(-c4ccn(C5CC5)n4)c(C)c23)c1 [Compound 137, 6-(1-Cyclopropyl-1H-pyrazol-3-yl)-N-(4-methoxypyridin-2-yl)-5-methyl-2-(1-methyl-1H-imidazol-2-yl)pyrrolo[2,1-f][1,2,4]triazin-4-amine] | > 10 | 10 to 30 | D* (85-100% activation)

Continued, in another order:

half-life at 2 µM [1] [min] | solubility at 2 h [2] [µM] | SMILES | % inh of Akt phosphorylation in Panc-1 (Akt phosphorylation)
> 10 | 10 to 30 | CCOc1ccnc(Nc2nc(-c3nccn3C)nn3cc(-c4ccn(C5CC5)n4)c(C)c23)c1 [Compound 141, 6-(1-Cyclopropyl-1H-pyrazol-3-yl)-N-(4-ethoxypyridin-2-yl)-5-methyl-2-(1-methyl-1H-imidazol-2-yl)pyrrolo[2,1-f][1,2,4]triazin-4-amine] | A (1-25% inhibition)
> 10 | 10 to 30 | Cc1c(-c2ccn(C3CC3)n2)cn2nc(-c3nccn3C)nc(Nc3cc(OC4CC4)ccn3)c12 [Compound 142, N-(4-Cyclopropoxypyridin-2-yl)-6-(1-cyclopropyl-1H-pyrazol-3-yl)-5-methyl-2-(1-methyl-1H-imidazol-2-yl)pyrrolo[2,1-f][1,2,4]triazin-4-amine] | A (1-25% inhibition)
< 10 | < 10 | Cc1c(-c2ccn(C3CC3)n2)cn2nc(-c3nccn3C)nc(Nc3ccccn3)c12 [Compound 143, 6-(1-Cyclopropyl-1H-pyrazol-3-yl)-5-methyl-2-(1-methyl-1H-imidazol-2-yl)-N-(pyridin-2-yl)pyrrolo[2,1-f][1,2,4]triazin-4-amine] | D* (85-100% activation)
> 10 | < 10 | Cc1ccnc(Nc2nc(-c3nccn3C)nn3cc(-c4ccn(C5CC5)n4)c(C)c23)c1 [Compound 144, 6-(1-Cyclopropyl-1H-pyrazol-3-yl)-5-methyl-2-(1-methyl-1H-imidazol-2-yl)-N-(4-methylpyridin-2-yl)pyrrolo[2,1-f][1,2,4]triazin-4-amine] | B* (26-49% activation)
> 10 | 10 to 30 | Cc1c(-c2ccn(C3CC3)n2)cn2nc(-c3nccn3C)nc(Nc3cc(N(C)C)ccn3)c12 [Compound 145, N^2-(6-(1-Cyclopropyl-1H-pyrazol-3-yl)-5-methyl-2-(1-methyl-1H-imidazol-2-yl)pyrrolo[2,1-f][1,2,4]triazin-4-yl)-N^4,N^4-dimethylpyridine-2,4-diamine] | D* (85-100% activation)
> 10 |  | Cc1c(-c2cccnc2)cn2nc(-c3nccn3C)nc(Nc3ccncn3)c12 [Compound 156, 5-Methyl-2-(1-methyl-1H-imidazol-2-yl)-6-(pyridin-3-yl)-N-(pyrimidin-4-yl)pyrrolo[2,1-f][1,2,4]triazin-4-amine] | D* (85-100% activation)
